Results on five compounds are retold here after ChEMBL document CHEMBL3421587, “Discovery of novel small-molecule antagonists for GluK2” (Bioorg Med Chem Lett, 2015).

Common to all, as to type: cell-based
The target of test [1] is Glutamate receptor ionotropic, kainate 2 (Homo sapiens) (UniProt Q13002). Description: Antagonist activity at GluK2 (unknown origin) transfected in HEK293 cells assessed as inhibition of L-glutamate-induced peak current responses at 1 mM compound added in background solution by electrophysiological analysis relative to control.
Test [2] has the same target. The test can be described thus: Agonist activity at GluK2 (unknown origin) transfected in HEK293 cells assessed as current responses at 1 mM by electrophysiological analysis.
For test [3] the target is unchanged. Description: Antagonist activity at GluK2 (unknown origin) transfected in HEK293 cells assessed as inhibition of L-glutamate-induced peak current response at 1 mM compound added in background and L-glutamate solution by electrophysiological analysis relative to control.

Activity calls are given as the source filed them. The calls are words filed in the database; no cut-off is given here.

Sequence of Glutamate receptor ionotropic, kainate 2 (Homo sapiens) (Q13002 whole entry): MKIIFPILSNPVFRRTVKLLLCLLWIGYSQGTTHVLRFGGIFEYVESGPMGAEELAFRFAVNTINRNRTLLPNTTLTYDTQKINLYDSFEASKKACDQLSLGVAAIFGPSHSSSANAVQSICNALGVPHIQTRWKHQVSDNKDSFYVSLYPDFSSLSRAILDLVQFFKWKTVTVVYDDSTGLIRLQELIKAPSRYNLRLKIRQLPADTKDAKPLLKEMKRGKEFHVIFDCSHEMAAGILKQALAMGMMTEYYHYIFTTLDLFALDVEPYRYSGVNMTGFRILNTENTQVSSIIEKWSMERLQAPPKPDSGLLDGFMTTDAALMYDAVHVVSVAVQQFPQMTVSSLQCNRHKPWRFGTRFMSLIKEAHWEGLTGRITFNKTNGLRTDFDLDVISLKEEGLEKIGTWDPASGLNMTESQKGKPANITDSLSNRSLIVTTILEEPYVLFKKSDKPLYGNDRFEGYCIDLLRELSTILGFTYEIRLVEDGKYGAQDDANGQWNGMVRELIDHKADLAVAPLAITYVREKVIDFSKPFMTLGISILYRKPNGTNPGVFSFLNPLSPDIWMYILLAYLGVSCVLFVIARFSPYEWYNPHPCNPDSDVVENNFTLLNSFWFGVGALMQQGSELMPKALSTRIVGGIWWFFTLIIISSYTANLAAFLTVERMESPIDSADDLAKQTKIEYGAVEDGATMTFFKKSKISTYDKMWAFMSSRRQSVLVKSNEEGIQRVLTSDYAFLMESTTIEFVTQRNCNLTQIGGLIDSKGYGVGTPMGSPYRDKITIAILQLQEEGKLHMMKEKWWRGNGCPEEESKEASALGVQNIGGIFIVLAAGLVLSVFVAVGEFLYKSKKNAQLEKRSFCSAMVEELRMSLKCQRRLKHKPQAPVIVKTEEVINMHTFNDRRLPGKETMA

As for `N[C@H](C(=O)O)[C@H](CC(=O)O)c1ccccc1`, the inhibition – broadly, the drop in the measured response relative to a control, in per cent – in test [1] is “inactive”.

As to `CCC[C@@H](CC(=O)O)[C@H](N)C(=O)O`, in test [1], the inhibition stood at 95%.

Turning to `C[C@@H](CC(=O)O)[C@H](N)C(=O)O`, in test [2], the result was inactive. The inhibition in test [1] came to 38%.

As to `CC[C@@H](CC(=O)O)[C@H](N)C(=O)O`, in test [2], the result was inactive. For the same compound, the figures for the inhibition in test [3] and in test [1] were 53% and 46%, respectively.

On to `CC(C)C[C@@H](CC(=O)O)[C@H](N)C(=O)O`, for which the inhibition entry in test [1] was “inactive”.
